{"source": "patent US9663528B2", "about": "“Substituted 1,2,3,4,6,8,12,12a-octahydro-1,4-methanodipyrido[1,2-a:1',2'-d]pyrazines and methods for treating viral infections” (priority 2012, dated 2017)", "key": {"in vitro": {"test": "in vitro", "conditions": "human", "experimental": "For the antiviral assay utilizing MT4 cells, 0.4 μL of […] test concentration of 3-fold serially diluted compound in DMSO was added to 40 μL of cell growth medium (RPMI 1640, 10% FBS, 1% penicilline/Streptomycine, 1% L-Glutamine, 1% HEPES) in each well of 384-well assay plates (10 concentrations) in quidruplicate.\n1 mL aliquots of 2×10^6 MT4 cells are pre-infected for 1 and 3 hours respectively at 37° C. with 25 μL (MT4) or of either cell growth medium (mock-infected) or a fresh 1:250 dilution of an HIV-IIIb concentrated ABI stock (0.004 m.o.i. for MT4 cells). Infected and uninfected cells are diluted in cell growth medium and 35 μL of 2000 (for MT4) cells is added to each well of the assay plates.\nAssay plates were then incubated in a 37° C. incubator. After 5 days of incubation, 25 μL of 2× concentrated CellTiter-Glo™ Reagent (catalog #G7573, Promega Biosciences, Inc., Madison, Wis.) was added to each well of the assay plate. Cell lysis was carried out by incubating at room temperature for 2-3 minutes, and then chemiluminescence was read using the Envision reader (PerkinElmer)."}, "PXR": {"biological_target": "PXR (Homo sapiens (Human), UniProt O75469)", "sequence (O75469 whole entry)": "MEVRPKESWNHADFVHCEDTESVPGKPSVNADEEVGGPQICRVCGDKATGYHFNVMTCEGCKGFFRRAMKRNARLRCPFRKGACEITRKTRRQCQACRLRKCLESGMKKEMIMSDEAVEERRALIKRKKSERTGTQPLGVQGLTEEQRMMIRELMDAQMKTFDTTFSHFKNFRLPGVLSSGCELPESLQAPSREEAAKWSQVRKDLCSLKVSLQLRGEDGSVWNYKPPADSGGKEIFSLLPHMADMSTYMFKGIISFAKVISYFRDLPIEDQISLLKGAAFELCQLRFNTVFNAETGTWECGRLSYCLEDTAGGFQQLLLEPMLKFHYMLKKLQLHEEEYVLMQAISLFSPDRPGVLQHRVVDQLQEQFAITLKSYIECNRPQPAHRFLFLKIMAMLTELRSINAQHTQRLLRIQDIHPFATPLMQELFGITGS", "test": "Human PXR activation assay (luciferase reporter gene assay, DPX2 cells)", "type": "cell-based", "conditions": "human", "experimental": "A stably transformed tumor cell line (DPX2) was plated on 96-well microtiter plates. DPX2 cells harbor the human PXR gene (NR112) and a luciferase reporter gene linked to two promoters identified in the human CYP3A4 gene, namely XREM and PXRE. […] The number of viable cells was determined and the reporter gene activity was assessed. Positive control: […]"}}}
{"smiles": "O=C(NCc1ccc(F)cc1F)c1cn2c(c(O)c1=O)C(=O)N1[C@@H]3CC[C@@H](C3)O[C@H]1C2", "note": "(racemic) [Compound 1, N-(2,4-difluorobenzyl)-8-hydroxy-7,9-dioxo-2,3,4,5,7,9,13,13a-octahydro-2,5-methanopyrido[1′,2′:4,5]pyrazino[2,1-b][1,3]oxazepine-10-carboxamide]", "values": [{"measurement": "CC50 at 5 days", "setting": "in vitro; CC50 nM in MT-4", "result": 5820, "unit": "nM"}]}
{"smiles": "O=C(NCc1ccc(F)cc1F)c1cn2c(c(O)c1=O)C(=O)N1C(C2)[N@]2CC[C@H]1C2", "note": "(stereo partly drawn) [Compound 6, (1R,4S)-N-(2,4-difluorobenzyl)-7-hydroxy-6,8-dioxo-3,4,6,8,12,12a-hexahydro-2H-1,4-methanopyrido[1′,2′:4,5]pyrazino[1,2-a]pyrimidine-9-carboxamide]", "values": [{"measurement": "Emax at 24 h, 15 µM", "setting": "PXR", "result": 0, "unit": "%"}]}
{"smiles": "C[C@@H](NC(=O)c1cn2c(c(O)c1=O)C(=O)N1[C@H]3CC[C@H](C3)O[C@@H]1C2)c1ccc(F)cc1F", "note": "[Compound 12, (2R,5S,13aR)-N—((R)-1-(2,4-difluorophenyl)ethyl)-8-hydroxy-7,9-dioxo-2,3,4,5,7,9,13,13a-octahydro-2,5-methanopyrido[1′,2′:4,5]pyrazino[2,1-b][1,3]oxazepine-10-carboxamide]", "values": [{"measurement": "CC50 at 5 days", "setting": "in vitro; CC50 nM in MT-4", "result": 3340, "unit": "nM"}]}
{"smiles": "C[C@H](NC(=O)c1cn2c(c(O)c1=O)C(=O)N1[C@H]3CC[C@H](C3)O[C@@H]1C2)c1ccc(F)cc1F", "note": "[Compound 14, (2R,5S,13aR)-N—((S)-1-(2,4-difluorophenyl)ethyl)-8-hydroxy-7,9-dioxo-2,3,4,5,7,9,13,13a-octahydro-2,5-methanopyrido[1′,2′:4,5]pyrazino[2,1-b][1,3]oxazepine-10-carboxamide]", "values": [{"measurement": "CC50 at 5 days", "setting": "in vitro; CC50 nM in MT-4", "result": 4940, "unit": "nM"}]}
{"smiles": "C[C@H](NC(=O)c1cn2c(c(O)c1=O)C(=O)N1[C@@H]3CC[C@@H](C3)O[C@H]1C2)c1ccc(F)cc1", "note": "[Compound 21, (2S,5R,13aS)-N—((S)-1-(4-fluorophenyl)ethyl)-8-hydroxy-7,9-dioxo-2,3,4,5,7,9,13,13a-octahydro-2,5-methanopyrido[1′,2′:4,5]pyrazino[2,1-b][1,3]oxazepine-10-carboxamide]", "values": [{"measurement": "CC50 at 5 days", "setting": "in vitro; CC50 nM in MT-4", "result": 13000, "unit": "nM"}]}
{"smiles": "C[C@H](NC(=O)c1cn2c(c(O)c1=O)C(=O)N1[C@H]3CC[C@H](C3)O[C@@H]1C2)c1ccc(F)cc1", "note": "[Compound 22, (2R,5S,13aR)-N—((S)-1-(4-fluorophenyl)ethyl)-8-hydroxy-7,9-dioxo-2,3,4,5,7,9,13,13a-octahydro-2,5-methanopyrido[1′,2′:4,5]pyrazino[2,1-b][1,3]oxazepine-10-carboxamide]", "values": [{"measurement": "CC50 at 5 days", "setting": "in vitro; CC50 nM in MT-4", "result": 4430, "unit": "nM"}]}
{"smiles": "O=C(NCc1cc(F)cc(F)c1)c1cn2c(c(O)c1=O)C(=O)N1[C@@H]3CC[C@@H](C3)O[C@H]1C2", "note": "[Compound 24, (2S,5R,13aS)-N-(3,5-difluorobenzyl)-8-hydroxy-7,9-dioxo-2,3,4,5,7,9,13,13a-octahydro-2,5-methanopyrido[1′,2′:4,5]pyrazino[2,1-b][1,3]oxazepine-10-carboxamide]", "values": [{"measurement": "CC50 at 5 days", "setting": "in vitro; CC50 nM in MT-4", "result": 12100, "unit": "nM"}]}
{"smiles": "O=C(NCc1ccc(F)c(C(F)(F)F)c1)c1cn2c(c(O)c1=O)C(=O)N1[C@@H]3CC[C@@H](C3)O[C@H]1C2", "note": "[Compound 25, (2S,5R,13aS)-N-(4-fluoro-3-(trifluoromethyl)benzyl)-8-hydroxy-7,9-dioxo-2,3,4,5,7,9,13,13a-octahydro-2,5-methanopyrido[1′,2′:4,5]pyrazino[2,1-b][1,3]oxazepine-10-carboxamide]", "values": [{"measurement": "CC50 at 5 days", "setting": "in vitro; CC50 nM in MT-4", "result": 5230, "unit": "nM"}]}
{"smiles": "O=C(NCc1ccc(Cl)c(F)c1)c1cn2c(c(O)c1=O)C(=O)N1[C@@H]3CC[C@@H](C3)O[C@H]1C2", "note": "[Compound 26, (2S,5R,13aS)-N-(4-chloro-3-fluorobenzyl)-8-hydroxy-7,9-dioxo-2,3,4,5,7,9,13,13a-octahydro-2,5-methanopyrido[1′,2′:4,5]pyrazino[2,1-b][1,3]oxazepine-10-carboxamide]", "values": [{"measurement": "CC50 at 5 days", "setting": "in vitro; CC50 nM in MT-4", "result": 8840, "unit": "nM"}]}
{"smiles": "O=C(NC1(c2ccc(F)cc2F)CC1)c1cn2c(c(O)c1=O)C(=O)N1C(C2)O[C@H]2CC[C@@H]1C2", "note": "(stereo partly drawn) [Compound 27, (2S,5R)-N-(1-(2,4-difluorophenyl)cyclopropyl)-8-hydroxy-7,9-dioxo-2,3,4,5,7,9,13,13a-octahydro-2,5-methanopyrido[1′,2′:4,5]pyrazino[2,1-b][1,3]oxazepine-10-carboxamide]", "values": [{"measurement": "CC50 at 5 days", "setting": "in vitro; CC50 nM in MT-4", "result": 8750, "unit": "nM"}]}
{"smiles": "O=C(NC1(c2ccc(F)cc2F)CC1)c1cn2c(c(O)c1=O)C(=O)N1C(C2)O[C@@H]2CC[C@H]1C2", "note": "(stereo partly drawn) [Compound 31, (2R,5S)-N-(1-(2,4-difluorophenyl)cyclopropyl)-8-hydroxy-7,9-dioxo-2,3,4,5,7,9,13,13a-octahydro-2,5-methanopyrido[1′,2′:4,5]pyrazino[2,1-b][1,3]oxazepine-10-carboxamide]", "values": [{"measurement": "CC50 at 5 days", "setting": "in vitro; CC50 nM in MT-4", "result": 4520, "unit": "nM"}]}
{"smiles": "O=C(NC1(c2ccc(F)cc2F)CCCCC1)c1cn2c(c(O)c1=O)C(=O)N1C(C2)O[C@H]2CC[C@@H]1C2", "note": "(stereo partly drawn) [Compound 34, (2S,5R)-N-(1-(2,4-difluorophenyl)cyclohexyl)-8-hydroxy-7,9-dioxo-2,3,4,5,7,9,13,13a-octahydro-2,5-methanopyrido[1′,2′:4,5]pyrazino[2,1-b][1,3]oxazepine-10-carboxamide]", "values": [{"measurement": "CC50 at 5 days", "setting": "in vitro", "result": 3580, "unit": "nM"}]}
{"smiles": "O=C(NC1(c2ccc(F)cc2F)CCOCC1)c1cn2c(c(O)c1=O)C(=O)N1C(C2)O[C@H]2CC[C@@H]1C2", "note": "(stereo partly drawn) [Compound 35, (2S,5R)-N-(4-(2,4-difluorophenyl)tetrahydro-2H-pyran-4-yl)-8-hydroxy-7,9-dioxo-2,3,4,5,7,9,13,13a-octahydro-2,5-methanopyrido[1′,2′:4,5]pyrazino[2,1-b][1,3]oxazepine-10-carboxamide]", "values": [{"measurement": "CC50 at 5 days", "setting": "in vitro; CC50 nM in MT-4", "result": 15500, "unit": "nM"}]}
{"smiles": "O=C(NCc1ncccc1C(F)(F)F)c1cn2c(c(O)c1=O)C(=O)N1[C@@H]3CC[C@@H](C3)O[C@H]1C2", "note": "[Compound 49, (2S,5R,13aS)-8-hydroxy-7,9-dioxo-N-((3-(trifluoromethyl)pyridin-2-yl)methyl)-2,3,4,5,7,9,13,13a-octahydro-2,5-methanopyrido[1′,2′:4,5]pyrazino[2,1-b][1,3]oxazepine-10-carboxamide]", "values": [{"measurement": "CC50 at 5 days", "setting": "in vitro; CC50 nM in MT-4", "result": 52200, "unit": "nM"}]}
{"smiles": "O=C(NCc1ccc(F)cc1OC1CC1)c1cn2c(c(O)c1=O)C(=O)N1[C@@H]3CC[C@@H](C3)O[C@H]1C2", "note": "[Compound 52, (2S,5R,13aS)-N-(2-cyclopropoxy-4-fluorobenzyl)-8-hydroxy-7,9-dioxo-2,3,4,5,7,9,13,13a-octahydro-2,5-methanopyrido[1′,2′:4,5]pyrazino[2,1-b][1,3]oxazepine-10-carboxamide]", "values": [{"measurement": "CC50 at 5 days", "setting": "in vitro; CC50 nM in MT-4", "result": 12900, "unit": "nM"}]}
{"smiles": "O=C(NCc1ccc(F)cc1OC1CC1)c1cn2c(c(O)c1=O)C(=O)N1[C@H]3CC[C@H](C3)O[C@@H]1C2", "note": "[Compound 53, (2R,5S,13aR)-N-(2-cyclopropoxy-4-fluorobenzyl)-8-hydroxy-7,9-dioxo-2,3,4,5,7,9,13,13a-octahydro-2,5-methanopyrido[1′,2′:4,5]pyrazino[2,1-b][1,3]oxazepine-10-carboxamide]", "values": [{"measurement": "CC50 at 5 days", "setting": "in vitro; CC50 nM in MT-4", "result": 3350, "unit": "nM"}]}
{"smiles": "O=C(NCc1ccc(F)cc1C(F)(F)F)c1cn2c(c(O)c1=O)C(=O)N1[C@H]3CC[C@H](C3)O[C@@H]1C2", "note": "[Compound 62, (2R,5S,13aR)-N-(4-fluoro-2-(trifluoromethyl)benzyl)-8-hydroxy-7,9-dioxo-2,3,4,5,7,9,13,13a-octahydro-2,5-methanopyrido[1′,2′:4,5]pyrazino[2,1-b][1,3]oxazepine-10-carboxamide]", "values": [{"measurement": "CC50 at 5 days", "setting": "in vitro; CC50 nM in MT-4", "result": 3490, "unit": "nM"}]}
{"smiles": "O=C(NCc1cc(Cl)c(F)cc1F)c1cn2c(c(O)c1=O)C(=O)N1[C@H]3CC[C@H](C3)O[C@@H]1C2", "note": "[Compound 65, (2R,5S,13aR)-N-(5-chloro-2,4-difluorobenzyl)-8-hydroxy-7,9-dioxo-2,3,4,5,7,9,13,13a-octahydro-2,5-methanopyrido[1′,2′:4,5]pyrazino[2,1-b][1,3]oxazepine-10-carboxamide]", "values": [{"measurement": "CC50 at 5 days", "setting": "in vitro; CC50 nM in MT-4", "result": 2510, "unit": "nM"}]}
{"smiles": "O=C(NCc1cccc(C(F)(F)F)c1F)c1cn2c(c(O)c1=O)C(=O)N1[C@H]3CC[C@H](C3)[C@@H]1C2", "note": "[Compound 74, (1R,4S,12aR)-N-(2-fluoro-3-(trifluoromethyl)benzyl)-7-hydroxy-6,8-dioxo-1,2,3,4,6,8,12,12a-octahydro-1,4-methanodipyrido[1,2-a:1′,2′-d]pyrazine-9-carboxamide]", "values": [{"measurement": "CC50 at 5 days", "setting": "in vitro; CC50 nM in MT-4", "result": 4340, "unit": "nM"}]}
{"smiles": "O=C(NCc1ncc(F)cc1F)c1cn2c(c(O)c1=O)C(=O)N1[C@H]3CC[C@H](C3)[C@@H]1C2", "note": "[Compound 76, (1R,4S,12aR)-N-((3,5-difluoropyridin-2-yl)methyl)-7-hydroxy-6,8-dioxo-1,2,3,4,6,8,12,12a-octahydro-1,4-methanodipyrido[1,2-a:1′,2′-d]pyrazine-9-carboxamide]", "values": [{"measurement": "CC50 at 5 days", "setting": "in vitro; CC50 nM in MT-4", "result": 34600, "unit": "nM"}]}
{"smiles": "C[C@@H](NC(=O)c1cn2c(c(O)c1=O)C(=O)N1[C@@H]3CC[C@H](C3)O[C@@H]1C2)c1c(F)cc(F)cc1F", "note": "[Compound 78, (2R,13aR)-8-hydroxy-7,9-dioxo-N—((R)-1-(2,4,6-trifluorophenyl)ethyl)-2,3,4,5,7,9,13,13a-octahydro-2,5-methanopyrido[1′,2′:4,5]pyrazino[2,1-b][1,3]oxazepine-10-carboxamide]", "values": [{"measurement": "CC50 at 5 days", "setting": "in vitro; CC50 nM in MT-4", "result": 3200, "unit": "nM"}]}
{"smiles": "O=C(NCc1ccccc1)c1cn2c(c(O)c1=O)C(=O)N1[C@H]3CC[C@H](C3)[C@@H]1C2", "note": "[Compound 94, (1R,4S,12aR)-N-benzyl-7-hydroxy-6,8-dioxo-1,2,3,4,6,8,12,12a-octahydro-1,4-methanodipyrido[1,2-a:1′,2′-d]pyrazine-9-carboxamide]", "values": [{"measurement": "CC50 at 5 days", "setting": "in vitro; CC50 nM in MT-4", "result": 51200, "unit": "nM"}]}
